Measurements from ChEMBL document CHEMBL1201862, “PubChem BioAssay data set” (2004).
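All cell lines were grown in 96-well plates and treated with compound for 48 hours. At the GI50, growth is halved.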 Active and inactive are the calls of the source. Rule as the data show it: active = GI50 up to about 1.1 µM and inactive = higher.

Assays:
Assay in all cases: inhibition of tumour cell growth, NCI panel, 48 h
EKVX = test system: EKVX
Hs-578T = test system: Hs-578T
UACC-62 = test system: UACC-62
T47D = test system: T47D
HL-60 = test system: HL-60
PC-3 = test system: PC-3
ACHN = test system: ACHN
CCRF-CEM = test system: CCRF-CEM
Malme-3M = test system: Malme-3M
SF-268 = test system: SF-268
COLO 205 = test system: COLO 205
HT-29 = test system: HT-29
IGROV-1 = test system: IGROV-1
SF-539 = test system: SF-539
MDA-N = test system: MDA-N
HCT-15 = test system: HCT-15
K562 = test system: K562
HOP-62 = test system: HOP-62
HOP-92 = test system: HOP-92
A549 = test system: A549
TK-10 = test system: TK-10
M14 = test system: M14
NCI-H460 = test system: NCI-H460
HCC 2998 = test system: HCC 2998
RPMI-8226 = test system: RPMI-8226
SF-295 = test system: SF-295
KM12 = test system: KM12
DU-145 = test system: DU-145
SNB-75 = test system: SNB-75
MOLT-4 = test system: MOLT-4
SW-620 = test system: SW-620
UO-31 = test system: UO-31
SK-MEL-28 = test system: SK-MEL-28
MDA-MB-231 = test system: MDA-MB-231
SNB-19 = test system: SNB-19
RXF 393 = test system: RXF 393
U-251 = test system: U-251
SN12C = test system: SN12C
NCI-H23 = test system: NCI-H23
OVCAR-3 = test system: OVCAR-3
HCT-116 = test system: HCT-116
OVCAR-5 = test system: OVCAR-5
OVCAR-8 = test system: OVCAR-8
MCF7 = test system: MCF7
SK-OV-3 = test system: SK-OV-3
OVCAR-4 = test system: OVCAR-4
NCI/ADR-RES = test system: NCI/ADR-RES
UACC-257 = test system: UACC-257
LOX IMVI = test system: LOX IMVI
SR = test system: SR
BT-549 = test system: BT-549
NCI-H522 = test system: NCI-H522
NCI-H226 = test system: NCI-H226
SK-MEL-5 = test system: SK-MEL-5
786-0 = test system: 786-0
MDA-MB-435 = test system: MDA-MB-435
CAKI-1 = test system: CAKI-1
SK-MEL-2 = test system: SK-MEL-2
A498 = test system: A498

Measured: GI50

CC1=C(C(=O)OC(C)C)C(c2cccc([N+](=O)[O-])c2)C(C(=O)OC(CO[N+](=O)[O-])CO[N+](=O)[O-])=C(C)N1 (centres undefined)
inactive: EKVX 4.37 µM | Hs-578T 3.51 µM | UACC-62 2.65 µM | T47D 3.99 µM | HL-60 2 µM | PC-3 2.05 µM | ACHN 3.44 µM | CCRF-CEM 1.92 µM | Malme-3M 5.15 µM | SF-268 2.26 µM | COLO 205 2.93 µM | HT-29 3.21 µM | IGROV-1 4.75 µM | SF-539 3.01 µM | MDA-N 2.83 µM | K562 2.76 µM | HOP-62 3.85 µM | HOP-92 1.78 µM | A549 3.37 µM | TK-10 8.07 µM | M14 3.56 µM | NCI-H460 3.5 µM | HCC 2998 4.53 µM | KM12 3.3 µM | DU-145 11.4 µM | SNB-75 2.66 µM | MOLT-4 1.85 µM | SW-620 4.14 µM | UO-31 3.44 µM | SK-MEL-28 11.4 µM | MDA-MB-231 3.59 µM | SNB-19 2.99 µM | RXF 393 7.52 µM | U-251 2.24 µM | SN12C 3.97 µM | NCI-H23 5.37 µM | OVCAR-3 3.45 µM | HCT-116 2.66 µM | OVCAR-5 6.71 µM | OVCAR-8 3.85 µM | SK-OV-3 7.01 µM | OVCAR-4 2.81 µM | NCI/ADR-RES 2.45 µM | UACC-257 3.54 µM | LOX IMVI 3.08 µM | SR 3.22 µM | BT-549 2.67 µM | NCI-H522 1.85 µM | NCI-H226 6.55 µM | SK-MEL-5 1.96 µM | 786-0 3.56 µM | MDA-MB-435 3.15 µM | CAKI-1 3.99 µM | SK-MEL-2 2.39 µM
2.86 µM: HCT-15
active: RPMI-8226 1.05 µM | SF-295 0.501 µM | MCF7 0.61 µM

C1=Cc2cccc3occ(c23)C=C1
inactive: EKVX 49.3 µM | Hs-578T 22.1 µM | UACC-62 39.3 µM | T47D 68.7 µM | HL-60 20.4 µM | PC-3 66.4 µM | ACHN 58.1 µM | CCRF-CEM 20.5 µM | Malme-3M > 100 µM | SF-268 > 100 µM | COLO 205 29 µM | HT-29 35.1 µM | IGROV-1 54.2 µM | SF-539 37.4 µM | MDA-N > 100 µM | K562 16.3 µM | HOP-62 > 100 µM | HOP-92 91.8 µM | A549 > 100 µM | TK-10 36 µM | M14 > 100 µM | NCI-H460 41.3 µM | HCC 2998 29 µM | SF-295 > 100 µM | KM12 43 µM | DU-145 > 100 µM | MOLT-4 25.6 µM | SW-620 39.1 µM | UO-31 41.8 µM | SK-MEL-28 47.2 µM | MDA-MB-231 > 100 µM | SNB-19 95.1 µM | RXF 393 25.8 µM | U-251 36.3 µM | SN12C > 100 µM | NCI-H23 84.5 µM | OVCAR-3 31.2 µM | HCT-116 46.3 µM | OVCAR-5 > 100 µM | OVCAR-8 46.8 µM | MCF7 31.8 µM | SK-OV-3 > 100 µM | OVCAR-4 56.9 µM | NCI/ADR-RES > 100 µM | UACC-257 > 100 µM | LOX IMVI 17.9 µM | SR 15.8 µM | BT-549 39.9 µM | NCI-H522 33 µM | NCI-H226 24.1 µM | SK-MEL-5 > 100 µM | 786-0 58.3 µM | A498 > 100 µM | MDA-MB-435 82 µM | CAKI-1 > 100 µM | SK-MEL-2 > 100 µM
48 µM: HCT-15

CCOc1c(OC)cc(CNNc2nccs2)cc1OC
inactive: EKVX 19.3 µM | Hs-578T > 100 µM | T47D 11.7 µM | HL-60 13.4 µM | PC-3 41.9 µM | ACHN > 100 µM | CCRF-CEM > 100 µM | Malme-3M 82.2 µM | SF-268 > 100 µM | COLO 205 51.4 µM | HT-29 > 100 µM | IGROV-1 > 100 µM | SF-539 > 100 µM | MDA-N > 100 µM | K562 24 µM | HOP-62 > 100 µM | HOP-92 67.6 µM | A549 60 µM | TK-10 > 100 µM | M14 42.1 µM | NCI-H460 27 µM | HCC 2998 > 100 µM | RPMI-8226 7.03 µM | SF-295 > 100 µM | KM12 > 100 µM | DU-145 15 µM | SNB-75 34.8 µM | MOLT-4 28.6 µM | SW-620 > 100 µM | UO-31 71.9 µM | SK-MEL-28 > 100 µM | MDA-MB-231 94.2 µM | SNB-19 > 100 µM | RXF 393 > 100 µM | U-251 32.7 µM | SN12C > 100 µM | NCI-H23 62.4 µM | OVCAR-3 > 100 µM | HCT-116 > 100 µM | OVCAR-5 4.57 µM | OVCAR-8 > 100 µM | MCF7 > 100 µM | OVCAR-4 > 100 µM | NCI/ADR-RES 70.6 µM | UACC-257 20.1 µM | LOX IMVI 47.2 µM | SR 29.5 µM | BT-549 41.5 µM | NCI-H522 52.6 µM | NCI-H226 > 100 µM | SK-MEL-5 12.9 µM | 786-0 > 100 µM | A498 > 100 µM | MDA-MB-435 54.2 µM | CAKI-1 > 100 µM
28 µM: HCT-15

COC(=O)[C@@H]1C[C@]2(CC=C(C)C)c3ccccc3N(S(=O)(=O)c3ccccc3)[C@@H]2N1C(=O)OC
10.4 µM: HCT-15
inactive: EKVX 3.83 µM | Hs-578T 10.6 µM | UACC-62 4.5 µM | T47D 5.94 µM | HL-60 9.14 µM | PC-3 17 µM | ACHN 25.5 µM | CCRF-CEM 27.9 µM | Malme-3M 32.5 µM | SF-268 18 µM | COLO 205 28.2 µM | HT-29 23.5 µM | SF-539 24.8 µM | MDA-N 26.9 µM | K562 9.55 µM | HOP-62 26.8 µM | HOP-92 15.1 µM | A549 11.6 µM | TK-10 32 µM | NCI-H460 14.1 µM | HCC 2998 10.6 µM | RPMI-8226 6.67 µM | SF-295 24.3 µM | KM12 19.7 µM | DU-145 > 100 µM | SNB-75 13.1 µM | MOLT-4 8.2 µM | SW-620 40.6 µM | UO-31 28.8 µM | SK-MEL-28 47.1 µM | MDA-MB-231 20.4 µM | SNB-19 34.1 µM | RXF 393 8.22 µM | U-251 13.3 µM | SN12C 40.6 µM | NCI-H23 > 100 µM | OVCAR-3 19.4 µM | HCT-116 20 µM | OVCAR-5 > 100 µM | OVCAR-8 20.3 µM | MCF7 8.87 µM | SK-OV-3 10.6 µM | OVCAR-4 18.1 µM | NCI/ADR-RES 10.4 µM | UACC-257 10.7 µM | LOX IMVI 21.5 µM | SR 5.33 µM | BT-549 32.2 µM | NCI-H522 10.3 µM | NCI-H226 19 µM | SK-MEL-5 11.6 µM | 786-0 25.1 µM | MDA-MB-435 10.4 µM | CAKI-1 27.2 µM | SK-MEL-2 5.96 µM

O=S1(=O)c2ccccc2N2C(c3ccccc3)=NOC2(c2ccccc2)CC1c1ccc(Br)cc1 (centres undefined)
> 100 µM: HCT-15
inactive: EKVX > 100 µM | Hs-578T > 100 µM | UACC-62 > 100 µM | T47D > 100 µM | HL-60 > 100 µM | PC-3 > 100 µM | ACHN > 100 µM | CCRF-CEM > 100 µM | Malme-3M > 100 µM | SF-268 > 100 µM | COLO 205 > 100 µM | HT-29 > 100 µM | IGROV-1 > 100 µM | SF-539 > 100 µM | MDA-N > 100 µM | K562 > 100 µM | HOP-62 > 100 µM | HOP-92 32.4 µM | A549 > 100 µM | TK-10 > 100 µM | M14 95.7 µM | NCI-H460 > 100 µM | HCC 2998 > 100 µM | SF-295 > 100 µM | KM12 > 100 µM | DU-145 > 100 µM | SNB-75 > 100 µM | MOLT-4 > 100 µM | SW-620 > 100 µM | UO-31 > 100 µM | SK-MEL-28 > 100 µM | MDA-MB-231 > 100 µM | SNB-19 > 100 µM | RXF 393 > 100 µM | U-251 > 100 µM | SN12C > 100 µM | NCI-H23 > 100 µM | OVCAR-3 > 100 µM | HCT-116 > 100 µM | OVCAR-5 > 100 µM | OVCAR-8 > 100 µM | MCF7 > 100 µM | SK-OV-3 > 100 µM | OVCAR-4 > 100 µM | NCI/ADR-RES > 100 µM | UACC-257 > 100 µM | LOX IMVI > 100 µM | SR > 100 µM | BT-549 > 100 µM | NCI-H522 > 100 µM | NCI-H226 > 100 µM | SK-MEL-5 > 100 µM | 786-0 > 100 µM | A498 > 100 µM | MDA-MB-435 > 100 µM | SK-MEL-2 > 100 µM
